Test results: patent publication US20250361268A1, “NOVEL ANTI-INFLAMMATORY PEPTIDE AND USE THEREOF” (NOVACELL TECHNOLOGY INC., priority 2022, published 2025)
Peptide text beside a SMILES is read from it.

T1: FPR2 (Homo sapiens, UniProt P25090)
T1 construct: expressed in transfected cells; host or cells: RBL cells (RBL-FPR2)
T1 sequence (P25090 1-351): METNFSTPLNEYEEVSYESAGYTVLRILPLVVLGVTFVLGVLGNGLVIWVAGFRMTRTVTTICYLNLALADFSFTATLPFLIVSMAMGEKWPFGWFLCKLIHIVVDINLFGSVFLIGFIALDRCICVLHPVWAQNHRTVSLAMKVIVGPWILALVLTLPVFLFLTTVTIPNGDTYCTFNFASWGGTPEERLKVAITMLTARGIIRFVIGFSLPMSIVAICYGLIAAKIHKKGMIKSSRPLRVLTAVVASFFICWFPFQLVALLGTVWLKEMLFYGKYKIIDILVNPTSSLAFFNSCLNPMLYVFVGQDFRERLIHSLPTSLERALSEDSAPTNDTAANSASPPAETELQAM

T2: FPR1 (Homo sapiens, UniProt P21462)
T2 sequence (P21462 1-350): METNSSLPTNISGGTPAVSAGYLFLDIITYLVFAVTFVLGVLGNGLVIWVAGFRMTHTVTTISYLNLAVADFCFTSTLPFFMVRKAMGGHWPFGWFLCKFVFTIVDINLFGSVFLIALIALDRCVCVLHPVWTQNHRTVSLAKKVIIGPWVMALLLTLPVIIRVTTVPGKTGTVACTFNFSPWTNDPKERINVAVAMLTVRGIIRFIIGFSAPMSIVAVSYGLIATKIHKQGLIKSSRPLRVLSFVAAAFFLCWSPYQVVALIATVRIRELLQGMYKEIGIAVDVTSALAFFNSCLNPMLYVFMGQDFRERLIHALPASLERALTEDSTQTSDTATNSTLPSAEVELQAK

T3: FPR1 (UniProt P21462 1-350, limits assumed)
T3 sequence (looked up): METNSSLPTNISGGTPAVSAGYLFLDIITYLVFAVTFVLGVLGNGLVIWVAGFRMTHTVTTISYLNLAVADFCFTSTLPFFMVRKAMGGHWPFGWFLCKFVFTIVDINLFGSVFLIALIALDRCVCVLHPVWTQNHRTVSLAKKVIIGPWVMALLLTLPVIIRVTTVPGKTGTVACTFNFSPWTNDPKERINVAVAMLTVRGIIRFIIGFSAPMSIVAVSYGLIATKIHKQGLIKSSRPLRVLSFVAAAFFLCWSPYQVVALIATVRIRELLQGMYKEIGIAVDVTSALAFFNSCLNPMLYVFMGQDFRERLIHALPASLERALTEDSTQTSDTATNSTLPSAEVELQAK

T4: formyl peptide receptor 2 (FPR2) (UniProt P25090 1-351, limits assumed)
T4 sequence (looked up): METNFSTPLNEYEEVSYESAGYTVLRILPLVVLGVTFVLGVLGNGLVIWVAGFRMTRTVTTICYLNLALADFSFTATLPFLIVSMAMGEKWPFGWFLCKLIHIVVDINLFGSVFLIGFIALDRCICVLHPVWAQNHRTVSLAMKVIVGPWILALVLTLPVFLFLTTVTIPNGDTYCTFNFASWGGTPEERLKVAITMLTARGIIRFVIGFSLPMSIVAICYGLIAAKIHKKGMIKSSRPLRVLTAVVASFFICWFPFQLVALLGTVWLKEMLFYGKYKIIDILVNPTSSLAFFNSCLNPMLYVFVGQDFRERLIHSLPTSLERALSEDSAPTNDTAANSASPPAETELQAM


Experiments:
FPR2 = target: T1, FPR2; experiment: Change in calcium activity by peptide (Fura-2) in RBL cells overexpressing FPR2; assay type: cell-based; conditions: calcium activity (Fura-2), graded per Table 3, read-out: EC50 for [Ca^2+] FPR2
Outline: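 Rat basophilic leukemia cells overexpressing FPR2 loaded with Fura-2 (37 °C 1 h, then RT 30 min dark); peptides (0.5 mM stocks in water or 50% DMSO) diluted in HBSS + 20 mM HEPES and added on a plate reader, intracellular Ca2+ change recorded.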

FPR1 [1] = target: T2, FPR1; experiment: Change in calcium activity by peptide, FPR1 activation effect; assay type: cell-based; conditions: calcium activity (Fura-2), graded per Table 3, read-out: EC50 for [Ca^2+] FPR1
Outline: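 Cells plated at 3×10^5 per well the day before were loaded with Fura-2 for 1 h at 37 °C, then kept 30 min in the dark at room temperature. Peptide-evoked calcium changes were recorded on a FlexStation 3.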

RAW264.7 cell line = experiment: Cytokine inhibition ability: LPS-induced cytokine gene expression in RAW264.7 macrophages; assay type: cell-based, mouse; conditions: grade of reduction rate of gene expression, peptide 100 nM, LPS 200 ng/mL, 6 hours
Method: The present inventors observed the cytokine inhibition ability of the immunomodulatory peptide candidates prepared according to one example of the present invention. Specifically, to confirm whether the peptides reduce inflammatory responses in cells, changes in cytokine gene expression in cells upon inflammation was measured.
The present inventors used a RAW264.7 cell line, that is, mouse macrophages, and used lipopolysaccharide (LPS; Sigma-Aldrich, #L2630), which is the main component of a gram-negative bacterial cell wall, as a material causing an inflammatory response. A peptide that had been dissolved in water at 100 μM was prepared.
In the present experiment, the cells were cultured in a DMEM (Lonza, #BE12-604F) containing 10% FBS and 1% penicillin-streptomycin under conditions of 37° C. and 5% CO2.
The cells were plated in a 24-well plate (Costar, #3603) at a density of 2.5×10^5 cells/well. After 24 hours, the prepared cells were treated with the peptide at 100 nM. After incubation at 37° C. for 30 minutes, to induce inflammation, 200 ng/mL of LPS was treated. After incubation at 37° C. for 6 hours, the cells in a medium-free state were treated with TRIzol™ (Invitrogen, #15596018) to lyse the cells. Through the given experimental method, RNA was obtained, cDNA was produced using a reverse transcriptase (Promega, #M1705). Afterward, a cytokine expression level was measured using SYBR Green (Enzynomics, RT530) and mouse primers of each inflammatory cytokine gene (TNFα, IL-6, and IL-1β).

FPR1 [2] = target: T3, FPR1; experiment: cell-based or functional assay
[3] = target: T4, formyl peptide receptor 2 (FPR2); experiment: cell-based or functional assay

| EC50 (FPR2) [nM] | EC50 (FPR1 [1]) [nM] | EC50 for [Ca2+] (FPR1 [2]) [nM] | EC50 for [Ca2+] [3] [nM] | Molecule | Cytokine inhibition ability IL-1β (RAW264.7 cell line) | Cytokine inhibition ability IL-6 (RAW264.7 cell line) | Cytokine inhibition ability TNFα (RAW264.7 cell line) |
| --- | --- | --- | --- | --- | --- | --- | --- |
| – | – | > 10000 | < 10 | HWKYKYM (HELM PEPTIDE1{[CCCC(=O)[*:2]].H.W.K.Y.K.Y.[dM].[am]}$$$$V2.0; SMILES CCCC(=O)N[C@@H](Cc1c[nH]cn1)C(=O)N[C@@H](Cc1c[nH]c2ccccc12)C(=O)N[C@@H](CCCCN)C(=O)N[C@@H](Cc1ccc(O)cc1)C(=O)N[C@@H](CCCCN)C(=O)N[C@@H](Cc1ccc(O)cc1)C(=O)N[C@H](CCSC)C(N)=O) [peptide of SEQ ID NO 37] | – | – | – |
| – | – | > 10000 | < 10 | WRYKYM (HELM PEPTIDE1{W.R.Y.K.Y.[dM].[am]}$$$$V2.0; N-terminus assumed; SMILES CSCC[C@@H](NC(=O)[C@H](Cc1ccc(O)cc1)NC(=O)[C@H](CCCCN)NC(=O)[C@H](Cc1ccc(O)cc1)NC(=O)[C@H](CCCNC(=N)N)NC(=O)[C@@H](N)Cc1c[nH]c2ccccc12)C(N)=O) [peptide of SEQ ID NO 35] | – | – | – |
| – | – | > 10000 | < 10 | MRYKYM (HELM PEPTIDE1{M.R.Y.K.Y.[dM].[am]}$$$$V2.0; N-terminus assumed; SMILES CSCC[C@H](N)C(=O)N[C@@H](CCCNC(=N)N)C(=O)N[C@@H](Cc1ccc(O)cc1)C(=O)N[C@@H](CCCCN)C(=O)N[C@@H](Cc1ccc(O)cc1)C(=O)N[C@H](CCSC)C(N)=O) [peptide of SEQ ID NO 41] | – | – | – |
| – | – | > 10000 | < 10 | KWKYKYM (HELM PEPTIDE1{[ac].K.W.K.Y.K.Y.[dM].[am]}$$$$V2.0; SMILES CSCC[C@@H](NC(=O)[C@H](Cc1ccc(O)cc1)NC(=O)[C@H](CCCCN)NC(=O)[C@H](Cc1ccc(O)cc1)NC(=O)[C@H](CCCCN)NC(=O)[C@H](Cc1c[nH]c2ccccc12)NC(=O)[C@H](CCCCN)NC(C)=O)C(N)=O) [peptide of SEQ ID NO 36] | – | – | – |
| – | – | > 10000 | < 10 | RMRYKYM (HELM PEPTIDE1{R.M.R.Y.K.Y.[dM].[am]}$$$$V2.0; N-terminus assumed; SMILES CSCC[C@H](NC(=O)[C@@H](N)CCCNC(=N)N)C(=O)N[C@@H](CCCNC(=N)N)C(=O)N[C@@H](Cc1ccc(O)cc1)C(=O)N[C@@H](CCCCN)C(=O)N[C@@H](Cc1ccc(O)cc1)C(=O)N[C@H](CCSC)C(N)=O) [peptide of SEQ ID NO 38] | – | – | – |

The remaining lines, values behind:

| Molecule | EC50 (FPR2) [nM] | EC50 (FPR1 [1]) [nM] | EC50 for [Ca2+] (FPR1 [2]) [nM] | EC50 for [Ca2+] [3] [nM] | Cytokine inhibition ability IL-1β (RAW264.7 cell line) | Cytokine inhibition ability IL-6 (RAW264.7 cell line) | Cytokine inhibition ability TNFα (RAW264.7 cell line) |
| --- | --- | --- | --- | --- | --- | --- | --- |
| CSCC[C@H](NC(=O)[C@H](CCCNC(=N)N)NC(C)=O)C(=O)N[C@@H](CCCNC(=N)N)C(=O)N[C@@H](Cc1ccc(O)cc1)C(=O)N[C@@H](CCCCN)C(=O)N[C@H](C(=O)N[C@H](CCSC)C(N)=O)C(C)C [Peptide 6] (HELM PEPTIDE1{[ac].R.M.R.Y.K.V.[dM].[am]}$$$$V2.0) | < 10 | > 10000 | – | – | A (81%-100%) | C (41%-60%) | A (81%-100%) |
| CSCC[C@H](N)C(=O)N[C@@H](CCCCN)C(=O)N[C@@H](Cc1ccc(O)cc1)C(=O)N[C@@H](CCCCN)C(=O)N[C@H](C(=O)N[C@H](CCSC)C(N)=O)C(C)C [Peptide 17] (HELM PEPTIDE1{M.K.Y.K.V.[dM].[am]}$$$$V2.0) | < 10 | > 10000 | – | – | B (61%-80%) | D (21%-40%) | B (61%-80%) |
| CSCC[C@H](NC(C)=O)C(=O)N[C@@H](CCCCN)C(=O)N[C@@H](Cc1ccc(O)cc1)C(=O)N[C@@H](CCCCN)C(=O)N[C@H](C(=O)N[C@H](CCSC)C(N)=O)C(C)C [Peptide 18] (HELM PEPTIDE1{[ac].M.K.Y.K.V.[dM].[am]}$$$$V2.0) | < 10 | > 10000 | – | – | A (81%-100%) | D (21%-40%) | A (81%-100%) |
| CCCC(=O)N[C@@H](CCSC)C(=O)N[C@@H](CCCCN)C(=O)N[C@@H](Cc1ccc(O)cc1)C(=O)N[C@@H](CCCCN)C(=O)N[C@H](C(=O)N[C@H](CCSC)C(N)=O)C(C)C [Peptide 19] (HELM PEPTIDE1{[CCCC(=O)[*:2]].M.K.Y.K.V.[dM].[am]}$$$$V2.0) | < 10 | > 10000 | – | – | A (81%-100%) | B (61%-80%) | B (61%-80%) |
| CCCCCCCC(=O)N[C@@H](CCSC)C(=O)N[C@@H](CCCCN)C(=O)N[C@@H](Cc1ccc(O)cc1)C(=O)N[C@@H](CCCCN)C(=O)N[C@H](C(=O)N[C@H](CCSC)C(N)=O)C(C)C [Peptide 20] (HELM PEPTIDE1{[CCCCCCCC(=O)[*:2]].M.K.Y.K.V.[dM].[am]}$$$$V2.0) | 11 to 100 | > 10000 | – | – | B (61%-80%) | B (61%-80%) | B (61%-80%) |
| CSCC[C@H](NC(=O)[C@@H](N)CCCNC(=N)N)C(=O)N[C@@H](CCCNC(=N)N)C(=O)N[C@@H](Cc1ccc(O)cc1)C(=O)N[C@@H](CCCCN)C(=O)N[C@@H](Cc1ccc(O)cc1)C(=O)N[C@H](CCSC)C(N)=O [Peptide 38] (HELM PEPTIDE1{R.M.R.Y.K.Y.[dM].[am]}$$$$V2.0) | < 10 | > 10000 | – | – | A (81%-100%) | C (41%-60%) | B (61%-80%) |
| CSCC[C@H](NC(=O)[C@H](CCCNC(=N)N)NC(C)=O)C(=O)N[C@@H](CCCNC(=N)N)C(=O)N[C@@H](Cc1ccc(O)cc1)C(=O)N[C@@H](CCCCN)C(=O)N[C@@H](Cc1ccc(O)cc1)C(=O)N[C@H](CCSC)C(N)=O [Peptide 39] (HELM PEPTIDE1{[ac].R.M.R.Y.K.Y.[dM].[am]}$$$$V2.0) | 11 to 100 | > 10000 | – | – | B (61%-80%) | D (21%-40%) | B (61%-80%) |
| CCCCCCCC(=O)N[C@@H](CCCNC(=N)N)C(=O)N[C@@H](CCSC)C(=O)N[C@@H](CCCNC(=N)N)C(=O)N[C@@H](Cc1ccc(O)cc1)C(=O)N[C@@H](CCCCN)C(=O)N[C@@H](Cc1ccc(O)cc1)C(=O)N[C@H](CCSC)C(N)=O [Peptide 40] (HELM PEPTIDE1{[CCCCCCCC(=O)[*:2]].R.M.R.Y.K.Y.[dM].[am]}$$$$V2.0) | 11 to 100 | > 10000 | – | – | A (81%-100%) | C (41%-60%) | B (61%-80%) |
| CSCC[C@H](NC(C)=O)C(=O)N[C@@H](CCCNC(=N)N)C(=O)N[C@@H](Cc1ccc(O)cc1)C(=O)N[C@@H](CCCCN)C(=O)N1CCC[C@H]1C(=O)N[C@H](CCSC)C(N)=O [Peptide 55] (HELM PEPTIDE1{[ac].M.R.Y.K.P.[dM].[am]}$$$$V2.0) | < 10 | > 10000 | – | – | A (81%-100%) | B (61%-80%) | B (61%-80%) |
